Key:
Assay type in all cases: cell-based
SNB-75 = experiment: SRB growth assay, 6 days exposure, CNS cancer; settings: SNB-75, 6 days
Procedure: (§1) Arsenic trioxide (1 mg/ml, 10 mg/ampoule, manufactured by Taylor Pharmaceuticals, Decatur, Ill.) was tested at five concentrations each at 10-fold dilutions, i.e., 10^−5, 10^−6, 10^−7, 10^−8 and 10^−9 μg/ml.
(§2) The in vitro tests were performed by incubating the test cells in the presence of the indicated concentration of arsenic trioxide under standard culture conditions for a designated period of time, which is followed by a sulforhodamine B (SRB) protein assay to estimate cell viability or growth. The cell lines are organized into subpanels according to the origin of the cell lines, e.g., leukemia, breast cancer, etc. A description of the cell lines and method of testing is described in Monk et al. (1997, Anticancer Drug Des. 12:533-41) and Weinstein et al., (1997, Science 275:343-9), which are incorporated herein in their entirety.
(§3) The measurement of an effect is expressed in Percentage Growth (PG). The measured effect of the compound on a cell line is calculated according to one or the other of the following two expressions: If (Mean ODtest−Mean ODzero)≧0. then PG=100×(Mean ODtest−Mean ODzero)/(Mean ODctrl−Mean ODzero) If (Mean ODtest−Mean ODzero)<0. then PG=100×(Mean ODtest−Mean ODzero)/(Mean ODzero where: • Mean ODzero=the average of optical density measurements of SRB-derived color just before exposure of cells to the test compounds; • Mean ODtest=the average of optical density measurements of SRB-derived color after exposure of cells to the test compound for a designated period of time; and • Mean ODctrl=the average of optical density measurements of SRB-derived color after with no exposure of cells to the test compound for a designated period of time
(§4) The first two columns describe the subpanel (e.g., leukemia) and cell line (e.g., CCRF-CEM) involved. The next two columns list the Mean ODzero and Mean ODctrl; the next five columns list the Mean ODtest for each of five different concentrations. Each concentration is expressed as the log10 (molar or μg/ml). The next five columns list the calculated PGs for each concentration. The response parameters GI50, TGI and LC50 are interpolated values representing the concentrations at which the PG is +50, 0, and −50, respectively. Sometimes these response parameters cannot be obtained by interpolation. If, for instance, all of the PGs in a given row exceed +50, then none of the three parameters can be obtained by interpolation. In such a case, the value given for each response parameter is the highest concentration tested and is preceded by a “>” sign. This practice is extended similarly to the other possible situations where a response parameter cannot be obtained by interpolation.
(§5) In the first set, the cells from 56 different cancer cell lines were exposed to five concentrations of arsenic trioxide continuously for two days prior to performing the SRB assay. In the second set, the cells from 50 different cell lines (a subset of the first 56 cell lines, plus the renal cancer cell line 786-0) were exposed continuously for six days prior to the SRB assay.

SF-539 = experiment: SRB growth assay, 6 days exposure, CNS cancer; settings: SF-539, 6 days
Procedure: as §1, §2, §3, §4, §5

SF-268 = experiment: SRB growth assay, 6 days exposure, CNS cancer; settings: SF-268, 6 days
Procedure: as §1, §2, §3, §4, §5

U251 = experiment: SRB growth assay, 6 days exposure, CNS cancer; settings: U251, 6 days
Procedure: as §1, §2, §3, §4, §5

MOLT-4 = experiment: SRB growth assay, 6 days exposure, leukemia; settings: MOLT-4, 6 days
Procedure: as §1, §2, §3, §4, §5

RPMI-8226 = experiment: SRB growth assay, 6 days exposure, leukemia; settings: RPMI-8226, 6 days
Procedure: as §1, §2, §3, §4, §5

K-562 = experiment: SRB growth assay, 6 days exposure, leukemia; settings: K-562, 6 days
Procedure: as §1, §2, §3, §4, §5

CCRF-CEM = experiment: SRB growth assay, 6 days exposure, leukemia
Procedure: as §1, §2, §3, §4, §5

[1] = read-out: LC50 (the source's name)

## arsenic trioxide
SNB-75
  TGI: 3.80E−06
SNB-75; Log 10 Concentration −4.9
  Mean Optical Densities: 0.028
  Percent Growth: −79%
SNB-75; Log 10 Concentration −5.9
  Mean Optical Densities: 0.815
  Percent Growth: 73%
SNB-75; Log 10 Concentration −6.9
  Mean Optical Densities: 1.024
  Percent Growth: 96%
SNB-75; Log 10 Concentration −7.9
  Mean Optical Densities: 1.033
  Percent Growth: 97%
SNB-75; Log 10 Concentration −8.9
  Mean Optical Densities: 1.143
  Percent Growth: 108%
SF-539
  TGI: 3.29E−06
SF-539; Log 10 Concentration −4.9
  Mean Optical Densities: 0.017
  Percent Growth: −59%
SF-539; Log 10 Concentration −5.9
  Mean Optical Densities: 0.691
  Percent Growth: 42%
SF-539; Log 10 Concentration −6.9
  Mean Optical Densities: 1.545
  Percent Growth: 97%
SF-539; Log 10 Concentration −7.9
  Mean Optical Densities: 1.403
  Percent Growth: 87%
SF-539; Log 10 Concentration −8.9
  Mean Optical Densities: 1.727
  Percent Growth: 108%
SF-268
  TGI: 2.57E−06
SF-268; Log 10 Concentration −4.9
  Mean Optical Densities: −0.004
  Percent Growth: −100%
SF-268; Log 10 Concentration −5.9
  Mean Optical Densities: 0.387
  Percent Growth: 45%
SF-268; Log 10 Concentration −6.9
  Mean Optical Densities: 0.356
  Percent Growth: 41%
SF-268; Log 10 Concentration −7.9
  Mean Optical Densities: 0.381
  Percent Growth: 44%
SF-268; Log 10 Concentration −8.9
  Mean Optical Densities: 0.990
  Percent Growth: 126%
U251
  TGI: 8.51E−07
U251; Log 10 Concentration −4.9
  Mean Optical Densities: −0.012
  Percent Growth: −100%
U251; Log 10 Concentration −5.9
  Mean Optical Densities: 0.088
  Percent Growth: −17%
U251; Log 10 Concentration −6.9
  Mean Optical Densities: 1.908
  Percent Growth: 81%
U251; Log 10 Concentration −7.9
  Mean Optical Densities: 2.018
  Percent Growth: 86%
U251; Log 10 Concentration −8.9
  Mean Optical Densities: 2.129
  Percent Growth: 91%
MOLT-4
  TGI: >1.26E−05
MOLT-4; Log 10 Concentration −4.9
  Mean Optical Densities: 0.113
  Percent Growth: 20%
MOLT-4; Log 10 Concentration −5.9
  Mean Optical Densities: 0.245
  Percent Growth: 47%
MOLT-4; Log 10 Concentration −6.9
  Mean Optical Densities: 0.432
  Percent Growth: 85%
MOLT-4; Log 10 Concentration −7.9
  Mean Optical Densities: 0.228
  Percent Growth: 43%
MOLT-4; Log 10 Concentration −8.9
  Mean Optical Densities: 0.554
  Percent Growth: 111%
RPMI-8226; Log 10 Concentration −4.9
  Mean Optical Densities: 0.065
  Percent Growth: −2%
RPMI-8226; Log 10 Concentration −5.9
  Mean Optical Densities: 0.368
  Percent Growth: 22%
RPMI-8226; Log 10 Concentration −6.9
  Mean Optical Densities: 1.423
  Percent Growth: 99%
RPMI-8226; Log 10 Concentration −7.9
  Mean Optical Densities: 1.263
  Percent Growth: 88%
RPMI-8226; Log 10 Concentration −8.9
  Mean Optical Densities: 1.607
  Percent Growth: 113%
RPMI-8226; [1]
  CC50: > 12.6 µM
K-562
  TGI: >1.26E−05
K-562; Log 10 Concentration −4.9
  Mean Optical Densities: 0.096
  Percent Growth: 2%
K-562; Log 10 Concentration −5.9
  Mean Optical Densities: 2.931
  Percent Growth: 97%
K-562; Log 10 Concentration −6.9
  Mean Optical Densities: 3.360
  Percent Growth: 112%
K-562; Log 10 Concentration −7.9
  Mean Optical Densities: 2.992
  Percent Growth: 99%
K-562; Log 10 Concentration −8.9
  Mean Optical Densities: 3.042
  Percent Growth: 101%
K-562; [1]
  CC50: > 12.6 µM
CCRF-CEM
  TGI: >1.26E−05
CCRF-CEM; Log 10 Concentration −4.9
  Mean Optical Densities: 0.048
  Percent Growth: 0%
CCRF-CEM; Log 10 Concentration −5.9
  Mean Optical Densities: 0.320
  Percent Growth: 8%
CCRF-CEM; Log 10 Concentration −6.9
  Mean Optical Densities: 3.051
  Percent Growth: 87%
CCRF-CEM; Log 10 Concentration −7.9
  Mean Optical Densities: 3.592
  Percent Growth: 102%
CCRF-CEM; Log 10 Concentration −8.9
  Mean Optical Densities: 3.601
  Percent Growth: 103%
CCRF-CEM; [1]
  CC50: > 12.6 µM
